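Exposure lasted 48 hours, with cells grown in 96-well plates and compounds tested at five concentrations. Here, GI50 denotes the concentration required for 50% inhibition of growth. At the TGI there is no net growth.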
Experiments:
Test in all cases: NCI-60 cell line screen, 48 h
[1] = test system: 786-0 renal
[2] = test system: A498 renal
[3] = test system: A549 NSCLC
[4] = test system: ACHN renal
[5] = test system: BT-549 breast
[6] = test system: CAKI-1 renal
[7] = test system: CCRF-CEM leukemia
[8] = test system: COLO 205 colon
[9] = test system: DU-145 prostate
[10] = test system: EKVX NSCLC
[11] = test system: HCC-2998 colon
[12] = test system: HCT-116 colon
[13] = test system: HCT-15 colon
[14] = test system: HL-60(TB) leukemia
[15] = test system: HOP-62 NSCLC
[16] = test system: HOP-92 NSCLC
[17] = test system: HS 578T breast
[18] = test system: HT29 colon
[19] = test system: IGROV1 ovarian
[20] = test system: K-562 leukemia
[21] = test system: KM12 colon
[22] = test system: LOX IMVI melanoma
[23] = test system: M14 melanoma
[24] = test system: MALME-3M melanoma
[25] = test system: MCF7 breast
[26] = test system: MDA-MB-231 breast
[27] = test system: MDA-MB-435
[28] = test system: MDA-MB-468 breast
[29] = test system: MOLT-4 leukemia
[30] = test system: NCI-H226 lung
[31] = test system: NCI-H23 lung
[32] = test system: NCI-H460 lung
[33] = test system: NCI-H522 lung
[34] = test system: NCI/ADR-RES ovarian
[35] = test system: OVCAR-3 ovarian
[36] = test system: OVCAR-4 ovarian
[37] = test system: OVCAR-5 ovarian
[38] = test system: OVCAR-8 ovarian
[39] = test system: PC-3 prostate
[40] = test system: RPMI-8226 leukemia
[41] = test system: RXF 393 renal
[42] = test system: SF-268 CNS
[43] = test system: SF-295 CNS
[44] = test system: SF-539 CNS
[45] = test system: SK-MEL-2 melanoma
[46] = test system: SK-MEL-28 melanoma
[47] = test system: SK-MEL-5 melanoma
[48] = test system: SK-OV-3 ovarian
[49] = test system: SN12C renal
[50] = test system: SNB-19 CNS
[51] = test system: SNB-75 CNS
[52] = test system: SR leukemia
[53] = test system: SW-620 colon
[54] = test system: T-47D breast
[55] = test system: TK-10 renal
[56] = test system: U251 CNS
[57] = test system: UACC-257 melanoma
[58] = test system: UACC-62 melanoma
[59] = test system: UO-31 renal

With `Cc1ccc(-c2cc(C(=O)N=Nc3c(O)[nH]c4ccc(F)cc34)c3ccccc3n2)cc1` the GI50 [1] was 16.6 µM, the TGI [1] was 39.1 µM and the GI50 [2] was 19 µM. For the same molecule, the TGI [2] was 34.1 µM, the GI50 [3] was 5.21 µM and the TGI [3] was 22.6 µM. The GI50 [4] was 12.7 µM, the TGI [4] was 26 µM and the GI50 [5] was 10.7 µM. It also gave a TGI [5] of 25.7 µM, a GI50 [6] of 12.2 µM and a TGI [6] of 27.3 µM. The GI50 [7] was 2.11 µM, the TGI [7] was greater than 100 µM and the GI50 [8] was 15.7 µM. For the same molecule, the TGI [8] was 34.5 µM, the GI50 [9] was 15.6 µM and the TGI [9] was 52.1 µM. For the same molecule, the GI50 [10] was 10.8 µM, the TGI [10] was 27.4 µM and the GI50 [11] was 15.1 µM. It also gave a TGI [11] of 32.7 µM, a GI50 [12] of 3.36 µM and a TGI [12] of 13.8 µM. The GI50 [13] was 2.39 µM, the TGI [13] was 15.3 µM and the GI50 [14] was 15.4 µM. It also gave a TGI [14] of 54 µM, a GI50 [15] of 4.48 µM and a TGI [15] of 18.6 µM. For the same molecule, the GI50 [16] was 11.5 µM, the TGI [16] was 30.8 µM and the GI50 [17] was 7.2 µM. For the same molecule, the TGI [17] was 66.3 µM, the GI50 [18] was 5.23 µM and the TGI [18] was 19.2 µM. It also gave a GI50 [19] of 12.5 µM, a TGI [19] of 28.5 µM and a GI50 [20] of 4.27 µM. The TGI [20] was greater than 100 µM, the GI50 [21] was 12.5 µM and the TGI [21] was 56 µM. For the same molecule, the GI50 [22] was 4.1 µM, the TGI [22] was 16.6 µM and the GI50 [23] was 11.6 µM. The TGI [23] was 28 µM, the GI50 [24] was 8.77 µM and the TGI [24] was 21.6 µM. The GI50 [25] was 4.6 µM, the TGI [25] was 23 µM and the GI50 [26] was 3.42 µM. It also gave a TGI [26] of 13.6 µM, a GI50 [27] of 11.1 µM and a TGI [27] of 27.8 µM. It also gave a GI50 [28] of 9.09 µM, a TGI [28] of 23.6 µM and a GI50 [29] of 4.29 µM. It also gave a TGI [29] greater than 100 µM, a GI50 [30] of 17.4 µM and a TGI [30] of 37.2 µM. It also gave a GI50 [31] of 4.2 µM, a TGI [31] of 18.4 µM and a GI50 [32] of 3.96 µM. It also gave a TGI [32] of 19.8 µM, a GI50 [33] of 11.8 µM and a TGI [33] of 27.5 µM. It also gave a GI50 [34] of 3.53 µM, a TGI [34] of 27.5 µM and a GI50 [35] of 8.75 µM. The TGI [35] was 30.4 µM, the GI50 [36] was 5.68 µM and the TGI [36] was 26.6 µM. For the same molecule, the GI50 [37] was 10.2 µM, the TGI [37] was 23.9 µM and the GI50 [38] was 4.72 µM. It also gave a TGI [38] of 33.2 µM, a GI50 [39] of 9.49 µM and a TGI [39] of 91 µM. It also gave a GI50 [40] of 10.6 µM, a TGI [40] greater than 100 µM and a GI50 [41] of 7.77 µM. It also gave a TGI [41] of 22.5 µM, a GI50 [42] of 8.11 µM and a TGI [42] of 49.5 µM. It also gave a GI50 [43] of 11.4 µM, a TGI [43] of 26.1 µM and a GI50 [44] of 2.64 µM. It also gave a TGI [44] of 8.66 µM, a GI50 [45] of 17 µM and a TGI [45] of 35 µM. The GI50 [46] was 10.2 µM, the TGI [46] was 22.3 µM and the GI50 [47] was 15.2 µM. For the same molecule, the TGI [47] was 30.1 µM, the GI50 [48] was 18.9 µM and the TGI [48] was 38.5 µM. For the same molecule, the GI50 [49] was 3.73 µM, the TGI [49] was 16.5 µM and the GI50 [50] was 17.3 µM. The TGI [50] was 42.3 µM, the GI50 [51] was 10.5 µM and the TGI [51] was 33.3 µM. It also gave a GI50 [52] of 8.17 µM, a TGI [52] greater than 100 µM and a GI50 [53] of 5.53 µM. It also gave a TGI [53] of 26 µM, a GI50 [54] of 11 µM and a TGI [54] of 54.2 µM. The GI50 [55] was 19.6 µM, the TGI [55] was 36.1 µM and the GI50 [56] was 4.09 µM. The TGI [56] was 18.2 µM, the GI50 [57] was 16.7 µM and the TGI [57] was 33.5 µM. For the same molecule, the GI50 [58] was 9.81 µM, the TGI [58] was 22.7 µM and the GI50 [59] was 12.3 µM. The TGI [59] was 24.8 µM.

Reference: PubChem BioAssay (NCI)
